Patent publication US5451516A, “Bifunctional protein from carrots (Daucus carota) with aspartokinase and homoserine dehydrogenase activities” (priority 1991, dated 1995)
Like-named read-outs stand apart in the source and are kept apart here. Blank lines part the entries; values can stand above or below the molecule they belong to.

Experiments:
[1] = system: carrot (Daucus carota L. cv Danvers) aspartokinase form I (AKI, Peak I; lysine-sensitive) of the bifunctional AK-HSDH protein; assay: Aspartokinase activity, hydroxamate method (first eluting DEAE peak, AKI); type: biochemical; details: for % Control AK activity +lys (10 mM): 10 mM lysine; for % Control AK activity +thr (10 mM): 10 mM threonine
Protocol: Aspartokinase activity was assayed by the hydroxamate method as described in P. Bryan et al., Biochem Biophys Res Comm 41: 1211-1217 (1970). […] The reaction was terminated by the addition of a solution of 0.37 M FeCl3, 0.20 M trichloroacetic aid and 0.72 M HCl. One unit (U) of activity produced 1 umol β-aspartylphosphate hr^-1. Zero time controls were included.

[2] = biological target: T1, carrot (Daucus carota L. cv Danvers) aspartokinase form II (AKII, Peak II; threonine-sensitive) of the bifunctional AK-HSDH protein (Daucus carota, UniProt P37142); assay: Aspartokinase activity, hydroxamate method (second eluting DEAE peak, AKII); type: biochemical
T1 construct: AK was purified by a series of column chromatography steps; endogenous in cells; host or cells: carrot (Daucus carota L. cv Danvers) cell suspension culture, protein partly purified by gel filtration and DEAE chromatography
T1 sequence (P37142 88-921): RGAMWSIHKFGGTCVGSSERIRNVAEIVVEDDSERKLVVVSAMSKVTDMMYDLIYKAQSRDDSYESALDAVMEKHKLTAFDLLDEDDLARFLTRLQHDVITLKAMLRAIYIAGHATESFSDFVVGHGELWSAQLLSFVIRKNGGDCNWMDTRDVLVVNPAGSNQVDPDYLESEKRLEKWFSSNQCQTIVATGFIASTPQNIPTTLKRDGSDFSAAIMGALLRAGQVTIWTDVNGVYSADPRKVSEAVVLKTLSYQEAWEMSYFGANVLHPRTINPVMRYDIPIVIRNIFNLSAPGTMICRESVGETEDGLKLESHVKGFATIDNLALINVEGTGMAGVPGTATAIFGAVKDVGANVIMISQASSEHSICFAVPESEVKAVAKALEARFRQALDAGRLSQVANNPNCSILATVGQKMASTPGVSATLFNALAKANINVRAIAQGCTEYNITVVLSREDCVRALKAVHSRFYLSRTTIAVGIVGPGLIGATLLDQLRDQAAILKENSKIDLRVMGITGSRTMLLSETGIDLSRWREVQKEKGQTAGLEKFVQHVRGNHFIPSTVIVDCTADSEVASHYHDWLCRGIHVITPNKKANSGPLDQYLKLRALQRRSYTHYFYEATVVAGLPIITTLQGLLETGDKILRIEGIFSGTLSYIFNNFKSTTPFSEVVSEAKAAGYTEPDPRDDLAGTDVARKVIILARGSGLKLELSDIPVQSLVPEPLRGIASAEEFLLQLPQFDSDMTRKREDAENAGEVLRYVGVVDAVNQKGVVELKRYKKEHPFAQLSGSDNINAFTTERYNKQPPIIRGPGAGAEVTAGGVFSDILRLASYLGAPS
Protocol: (§1) The first eluting peak (28-32 min), AKI, was inhibited by lysine and was relatively insensitive to threonine (See Table II). The second peak (44-48 min), AKII, was inhibited by threonine and was relatively insensitive to lysine. These two peaks were kinetically different as well as having different feedback inhibition patterns. The Km(asp) for AKI was approximately 1 mM and for AKII was approximately 9 mM. Experimental conditions could affect which AK activities were observed. AK activity inhibited by lysine was not observed unless lysine was added to the homogenization buffer. If the pH of the sample was lowered to pH 6 before anion exchange, sensitivity to lysine was lost, although the total amount of AK activity remained unchanged. […] Furthermore, the lysine-sensitive activity could not be eluted from the cation-exchange medium with KC1.
AK was purified by a series of column chromatography steps. The cells were harvested after 5 days and disrupted in a nitrogen bomb as described for HSDH (B. Matthews (1989), supra) except that the threonine concentration was reduced to 1 mM and 1 mM lysine was added to the extraction buffer. The crude extract was concentrated by 60% ammonium sulfate before the first gel filtration through Biogel A-0.5 m (4.5 cm×47 cm) equilibrated with 50 mM Tris-HCl pH 7.5, 10 mM 2-mercaptoethanol, 1 mM EDTA, 1 mM lysine, 1 mM threonine and 20% glycerol. Fractions containing AK activity were combined, concentrated by the addition of an equal volume of saturated ammonium sulfate for a second gel filtration through Sephadex G-150 (2.5 cm×39 cm) and equilibrated with the same buffer plus 0.2 M KC1. Fractions with AK activity were combined, concentrated by the addition of an equal volume of saturated ammonium sulfate and dialyzed against 16 mM Tris-HCl pH 7.5, 10 mM 2-mercaptoethanol, 1 mM lysine, 1 mM threonine and 20% glycerol. The dialyzed sample was loaded onto an Altex Spherogel TSK DEAE-5PW column (21.5 mm×15 cm). AK activity was eluted over 65 min with a gradient from 0-0.5 M KCl in 20 mM Mes pH 6, 5 mM 2-mercaptoethanol, 1 mM lysine, 1 mM threonine, and 20% glycerol. Fractions containing activity were combined, diluted four-fold and applied to an Altex Spherogel TSK DEAE-5PW column (7.5 mm×7.5 cm) equilibrated with 50 mM Tris-HCl pH 7.5 containing 5 mM 2-mercaptoethanol,1 mM lysine, 1 mM threonine and 20% glycerol fractions containing AK activity were combined and diluted four-fold and reapplied to the column equilibrated with the same buffer containing 20 mM aspartate. Fractions with AK activity were concentrated by filtration through Centricon-303 filters (Amicon) and stored at -20° C.
Aspartokinase activity was assayed by the hydroxamate method as described in P. Bryan et al., Biochem Biophys Res Comm 41: 1211-1217 (1970). […]

[3] = substrate: N[C@@H](CC(=O)O)C(=O)O; assay: as above; type: biochemical, Daucus carota; details: other: AKII, second peak (44-48 min) from DEAE pH 6, 37.0 °C
Protocol: as §1
AK was purified by a series of column chromatography steps. The cells were harvested after 5 days and disrupted in a nitrogen bomb as described for HSDH (B. Matthews (1989), supra) except that the threonine concentration was reduced to 1 mM and 1 mM lysine was added to the extraction buffer. The crude extract was concentrated by 60% ammonium sulfate before the first gel filtration through Biogel A-0.5 m (4.5 cm×47 cm) equilibrated with 50 mM Tris-HCl pH 7.5, 10 mM 2-mercaptoethanol, 1 mM EDTA, 1 mM lysine, 1 mM threonine and 20% glycerol. […]

Molecule: NCCCC[C@H](N)C(=O)O [lys, lysine]
% Control AK activity +lys (10 mM) ([1]; prep ak32I): 21 % Control
% Control AK activity +lys (10 mM) ([1]; prep ak33I): 39 % Control
remaining activity at 10000 µM ([2]; read-out: % Control AK activity +lys (10 mM), prep ak33II, 10 mM lysine): 75%
remaining activity at 10000 µM ([2]; read-out: % Control AK activity +lys (10 mM), prep ak45II, 10 mM lysine): 91%

% Control AK activity +thr (10 mM) ([1]; prep ak32I): 68 % Control
% Control AK activity +thr (10 mM) ([1]; prep ak33I): 71 % Control
remaining activity at 10000 µM ([2]; prep ak33II, 10 mM threonine, read-out: % Control AK activity +thr (10 mM)): 32%
remaining activity at 10000 µM ([2]; prep ak45II, 10 mM threonine, read-out: % Control AK activity +thr (10 mM)): 33%
Molecule: C[C@@H](O)[C@H](N)C(=O)O [thr, threonine]

B1: carrot (Daucus carota L. cv Danvers) aspartokinase form II (AKII, Peak II; threonine-sensitive) of the bifunctional AK-HSDH protein (Daucus carota) (protein)
chain: RGAMWSIHKFGGTCVGSSERIRNVAEIVVEDDSERKLVVVSAMSKVTDMMYDLIYKAQSRDDSYESALDAVMEKHKLTAFDLLDEDDLARFLTRLQHDVITLKAMLRAIYIAGHATESFSDFVVGHGELWSAQLLSFVIRKNGGDCNWMDTRDVLVVNPAGSNQVDPDYLESEKRLEKWFSSNQCQTIVATGFIASTPQNIPTTLKRDGSDFSAAIMGALLRAGQVTIWTDVNGVYSADPRKVSEAVVLKTLSYQEAWEMSYFGANVLHPRTINPVMRYDIPIVIRNIFNLSAPGTMICRESVGETEDGLKLESHVKGFATIDNLALINVEGTGMAGVPGTATAIFGAVKDVGANVIMISQASSEHSICFAVPESEVKAVAKALEARFRQALDAGRLSQVANNPNCSILATVGQKMASTPGVSATLFNALAKANINVRAIAQGCTEYNITVVLSREDCVRALKAVHSRFYLSRTTIAVGIVGPGLIGATLLDQLRDQAAILKENSKIDLRVMGITGSRTMLLSETGIDLSRWREVQKEKGQTAGLEKFVQHVRGNHFIPSTVIVDCTADSEVASHYHDWLCRGIHVITPNKKANSGPLDQYLKLRALQRRSYTHYFYEATVVAGLPIITTLQGLLETGDKILRIEGIFSGTLSYIFNNFKSTTPFSEVVSEAKAAGYTEPDPRDDLAGTDVARKVIILARGSGLKLELSDIPVQSLVPEPLRGIASAEEFLLQLPQFDSDMTRKREDAENAGEVLRYVGVVDAVNQKGVVELKRYKKEHPFAQLSGSDNINAFTTERYNKQPPIIRGPGAGAEVTAGGVFSDILRLASYLGAPS
notes: AK was purified by a series of column chromatography steps; The cells were harvested after 5 days; endogenous in cells; host or cells: carrot (Daucus carota L. cv Danvers) cell suspension culture, protein partly purified by gel filtration and DEAE chromatography
Km [3]: 9 mM
